Experimental data as given in patent US5430148A, “Antiproliferative quinazolines” (Agouron Pharmaceuticals, Inc., priority 1992, dated 1995).

Assays:
[1] = system: ovarian, liver and breast cancer; details: literature; cited from earlier work
[2] = literature; cited from earlier work
[3] = target: E. coli TS (thymidylate synthase) (Escherichia coli, UniProt P0A884); assay: Inhibition constants against 5,10-methylenetetrahydrofolate for thymidylate synthase, E. coli enzyme (tritium release); format: biochemical
E. coli TS (thymidylate synthase), sequence (P0A884 whole entry): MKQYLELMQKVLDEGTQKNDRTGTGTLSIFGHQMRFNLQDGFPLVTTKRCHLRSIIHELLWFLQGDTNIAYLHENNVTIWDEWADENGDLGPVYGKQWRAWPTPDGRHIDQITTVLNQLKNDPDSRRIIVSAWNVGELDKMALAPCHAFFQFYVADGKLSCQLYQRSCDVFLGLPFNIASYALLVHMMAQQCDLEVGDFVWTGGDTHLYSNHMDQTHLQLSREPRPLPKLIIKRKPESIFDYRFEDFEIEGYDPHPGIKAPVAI
Protocol: (§1) Determination of Inhibition Constants Against 5,10-Methylenetetrahydrofolate for the Enzyme Thymidylate Synthase
(§2) Inhibition constants, Ki, slope and Ki, intercept [W. W. Cleland, Biochim. Biophys. […] The cofactor was present as the variable substrate under conditions of saturating radiolabelled 2'-deoxyuridine 5-monophosphate (dUMP). […] Assays of human TS also contained 1-5 μg/mL bovine serum albumin to stabilize the protein. Reactions were initiated by the addition of enzyme and were carried out for 5 minutes at 24° C., and then quenched by the addition of charcoal (15 mg in 0.1 mL H2 O). The quenched samples were centrifuged at 10,000 rpm for 12-15 min at […] to remove unreacted dUMP which had bound to the charcoal, and 0.1 mL of the supernatant was counted by liquid scintillation in the presence of 5 mL ecolume to determine the release of tritium label from the 5-position of the dUMP. […] Experimental results were analyzed by EZ-FIT, a nonlinear regression analysis program (Perrella Scientific, Springfield, Pa.) which was used to fit all data points simultaneously to a mixed noncompetitive inhibition scheme.

[4] = target: human TS (thymidylate synthase) (Homo sapiens, UniProt P04818); assay: Inhibition constants against 5,10-methylenetetrahydrofolate for thymidylate synthase, human enzyme (tritium release); format: biochemical; details: Ki Data, human thymidylate synthase, cofactor as variable substrate, pH 7.6, 24° C.
human TS (thymidylate synthase), sequence (P04818 2-313 limits assumed): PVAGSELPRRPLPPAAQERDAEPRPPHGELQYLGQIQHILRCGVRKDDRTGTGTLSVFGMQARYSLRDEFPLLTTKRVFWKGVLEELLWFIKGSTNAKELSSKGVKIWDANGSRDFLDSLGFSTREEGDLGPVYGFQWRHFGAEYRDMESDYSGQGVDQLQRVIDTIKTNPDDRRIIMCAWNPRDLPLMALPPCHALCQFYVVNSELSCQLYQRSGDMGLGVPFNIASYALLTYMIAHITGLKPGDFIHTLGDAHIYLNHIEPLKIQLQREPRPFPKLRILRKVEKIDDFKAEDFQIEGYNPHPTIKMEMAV
Protocol: as §1, §2

[5] = system: L1210 murine leukemia cells; assay: Inhibition of growth of tumor cells, L1210 murine leukemia (MTT); format: cell-based; details: Mus musculus, L1210, 72 h; for IC50: 3 days continuous exposure, MTT, read-out: Cell Culture IC50, L1210
Protocol: (§3) In Vitro Testing to Determine Inhibition of Growth of Tumor Cells
(§4) Growth was measured over 3 days (L1210) or 5 days (CCRF-CEM, GC3 /M TK^-) of continuous exposure to varying concentrations of each test compound, added 4 h. after initial cell plating, by the MTT-tetrazolium reduction assay of T. J. Mosmann [J. Immunol. Meth. […] Water insoluble derivatives were dissolved in DMSO and diluted to a final concentration of 0.5% solvent in cell cultures.

[6] = system: CCRF-CEM cells; assay: Inhibition of growth of tumor cells, CCRF-CEM human lymphoblastic leukemia (MTT); format: cell-based; details: Homo sapiens, CCRF-CEM, 120 h; for IC50: 5 days continuous exposure, MTT, read-out: Cell Culture IC50, CCRF-CEM
Protocol: as §3, §4

[7] = system: GC3/M TK- cells; assay: Inhibition of growth of tumor cells, thymidine kinase-deficient human colon adenocarcinoma GC3/M TK- (MTT); format: cell-based; details: for IC50: Homo sapiens, GC3/MTK-, 120 h, 5 days continuous exposure, MTT, read-out: Cell Culture IC50, GC3-M (TK-)
Protocol: as §3, §4

Compound	activity against cancer [1]	toxicities [2]	Ki [3] [µM]	Ki [4] [µM]	IC50 [5] [µM]	IC50 [6] [µM]	IC50 [7] [µM]	inhibition at 50 µM ([5]; @ > 50 μM, 3 days, read-out: growth inhibition, L1210) [%]	inhibition at 50 µM ([6]; @ > 50 μM, 5 days, read-out: growth inhibition, CCRF-CEM) [%]	growth inhibition, GC3-M (TK-) ([7]; @ > 50 μM, 5 days)
C#CCN(Cc1ccc2nc(N)[nH]c(=O)c2c1)c1ccc(C(=O)N[C@@H](CCC(=O)O)C(=O)O)cc1 [10-propargyl-5,8-dideazafolic acid]	activity against ovarian, liver and breast cancer	troublesome hepatic and renal toxicities								
Cc1nc2ccc(C)c(Sc3ccncc3)c2c(=O)[nH]1 [Compound 8A, 3,4-Dihydro-2,6-dimethyl-4-oxo-5-(4-pyridylthio)-quinazoline]			0.89 ± 0.28	0.062	3.5	5.2	6			
Cc1nc2cccc(Sc3ccccn3)c2c(=O)[nH]1 [Compound 20A]			311 ± 99	61 ± 17	> 50	> 50	> 50	40	20	none
